Reference: patent US4057545A, “Imidazole derivatives” (Nordmark-Werke GmbH Hamburg, priority 1975, dated 1977)

system: Staphylococcus aureus; assay: series dilution test in vitro, Staph. aur.; format: cell-based; design: key: .phi.: complete inhibition; (+): strong inhibition; +: moderate inhibition; ++: slight inhibition; +++: no inhibition; details: dilution 1: 10,000
Method: (§1) The new compounds and their salts are valuable agents for controlling fungi and yeasts and, in addition, are also active against several types of bacteria. To test the antimicrobial activity of the new compounds in vitro, they were tested in a series dilution test with dilutions of from 1:10,000 to 1:100,000 for their effectiveness against the germs Staphylococcus aureus, Trichophyton mentagrophytes and Candida albicans.

Compound	inhibition of Staph. aur., 1st value
Cc1ccc(C(=Cc2ccc(Cl)cc2Cl)Cn2ccnc2)cc1 [n=0, R1=4-CH3, R2=H, R3=2-Cl, R4=4-Cl]	.phi.
Clc1ccc(C=C2c3cc(Cl)ccc3CC2n2ccnc2)c(Cl)c1 (stereo not drawn) [n=1, R1=6-Cl, R2=H, R3=4-Cl, R4=2-Cl]	.phi.
COc1ccc(C(=Cc2ccccc2)Cn2ccnc2)cc1 [n=0, R1=H, R2=4-OCH3, R3=H, R4=H]	.phi.

same assay, conditions: dilution 1: 100,000

Compound	inhibition of Staph. aur., 2nd value
Cc1ccc(C(=Cc2ccc(Cl)cc2Cl)Cn2ccnc2)cc1 [n=0, R1=4-CH3, R2=H, R3=2-Cl, R4=4-Cl]	.phi.
Clc1ccc(C=C2c3cc(Cl)ccc3CC2n2ccnc2)c(Cl)c1 (stereo not drawn) [n=1, R1=6-Cl, R2=H, R3=4-Cl, R4=2-Cl]	.phi.
COc1ccc(C(=Cc2ccccc2)Cn2ccnc2)cc1 [n=0, R1=H, R2=4-OCH3, R3=H, R4=H]	.phi.

system: Candida albicans; assay: series dilution test in vitro, Cand. alb.; format: cell-based; design: key: .phi.: complete inhibition; (+): strong inhibition; +: moderate inhibition; ++: slight inhibition; +++: no inhibition; details: dilution 1: 10,000
Method: as §1

Compound	inhibition of Cand. alb., 1st value
Cc1ccc(C(=Cc2ccc(Cl)cc2Cl)Cn2ccnc2)cc1 [n=0, R1=4-CH3, R2=H, R3=2-Cl, R4=4-Cl]	.phi.
Clc1ccc(C=C2c3cc(Cl)ccc3CC2n2ccnc2)c(Cl)c1 (stereo not drawn) [n=1, R1=6-Cl, R2=H, R3=4-Cl, R4=2-Cl]	.phi.
COc1ccc(C(=Cc2ccccc2)Cn2ccnc2)cc1 [n=0, R1=H, R2=4-OCH3, R3=H, R4=H]	.phi.

same assay, conditions: dilution 1: 100,000

Compound	inhibition of Cand. alb., 2nd value
Cc1ccc(C(=Cc2ccc(Cl)cc2Cl)Cn2ccnc2)cc1 [n=0, R1=4-CH3, R2=H, R3=2-Cl, R4=4-Cl]	(+)
Clc1ccc(C=C2c3cc(Cl)ccc3CC2n2ccnc2)c(Cl)c1 (stereo not drawn) [n=1, R1=6-Cl, R2=H, R3=4-Cl, R4=2-Cl]	+++
COc1ccc(C(=Cc2ccccc2)Cn2ccnc2)cc1 [n=0, R1=H, R2=4-OCH3, R3=H, R4=H]	+++

system: not given; assay: not given; details: mice; literature value; cited from earlier work

Compound	LD50 (Lit.)
Clc1ccc(COC(Cn2ccnc2)c2ccc(Cl)cc2Cl)c(Cl)c1 (stereo not drawn) [Miconazole, 1-[2,4-dichloro-β-(2,4,-dichlorobenzyloxy)-phenethyl]-imidazole nitrate]	578 mg/kg

system: Trichophyton mentagrophytes; assay: series dilution test in vitro, Trichoph.; format: cell-based; design: key: .phi.: complete inhibition; (+): strong inhibition; +: moderate inhibition; ++: slight inhibition; +++: no inhibition; details: dilution 1: 10,000
Method: as §1

Compound	inhibition of Trichoph., 1st value
Cc1ccc(C(=Cc2ccc(Cl)cc2Cl)Cn2ccnc2)cc1 [n=0, R1=4-CH3, R2=H, R3=2-Cl, R4=4-Cl]	.phi.
Clc1ccc(C=C2c3cc(Cl)ccc3CC2n2ccnc2)c(Cl)c1 (stereo not drawn) [n=1, R1=6-Cl, R2=H, R3=4-Cl, R4=2-Cl]	.phi.
COc1ccc(C(=Cc2ccccc2)Cn2ccnc2)cc1 [n=0, R1=H, R2=4-OCH3, R3=H, R4=H]	.phi.

same assay, conditions: dilution 1: 100,000

Compound	inhibition of Trichoph., 2nd value
Cc1ccc(C(=Cc2ccc(Cl)cc2Cl)Cn2ccnc2)cc1 [n=0, R1=4-CH3, R2=H, R3=2-Cl, R4=4-Cl]	.phi.
Clc1ccc(C=C2c3cc(Cl)ccc3CC2n2ccnc2)c(Cl)c1 (stereo not drawn) [n=1, R1=6-Cl, R2=H, R3=4-Cl, R4=2-Cl]	.phi.
COc1ccc(C(=Cc2ccccc2)Cn2ccnc2)cc1 [n=0, R1=H, R2=4-OCH3, R3=H, R4=H]	.phi.

system: Candida albicans; assay: oral effectiveness in Candida-infected mice (survival); format: in vivo; details: 100 mg/kg twice daily for 7 days
Text: Accordingly, the compounds according to the invention are particularly suitable for the oral treatment of generalized infections by fungi and yeasts in human and veterinary medicine. Since the hitherto available medicaments are not yet satisfactory (Lit.: Infection 2, (1974) 95-107), they represent a valuable addition to pharmacology. In addition, they may be used equally effectively for the local treatment of surface infections and for the treatment of infections of the mucosa excessible to local treatment. Typical diseases of thiskind, for the treatment of which the compounds of the present invention are particular useful, are for instance generalized candidoses, candidoses of the lungs, of the skin or of the genitals or generalized trichophytoses (tineas) or trichophytoses of the skin, of the nails or of the hair.
In order to determine the oral effectiveness of the compounds, groups of 10 mice each weighing approximately 20 g were each treated i.m for 2 days with 50 mg/kg of hydrocortisone to ensure effective development of the infection. The mice were then each infected i.v. with 500,000 Candida albicans germs and thereafter were treated twice daily for 7 days with 100 mg/kg of the substance to be tested. In addition to an infected, but untreated control group, one group was treated with the reference substance Miconazole for comparison.

Compound	animals still alive on the last day of the treatment
Clc1ccc(COC(Cn2ccnc2)c2ccc(Cl)cc2Cl)c(Cl)c1 (stereo not drawn) [Miconazole, 1-[2,4-dichloro-β-(2,4,-dichlorobenzyloxy)-phenethyl]-imidazole nitrate]	20%

system: not listed separately; assay: LD50 (mice); details: mouse, in vivo

Compound	LD50
Clc1ccc(C=C(Cn2ccnc2)c2ccccc2)c(Cl)c1 [D, 1-(2,4-dichlorophenyl)-2-phenyl-3-(imidazolyl-1)-propene-1-nitrate]	~1000 mg/kg
Clc1ccc(C(=Cc2ccc(Cl)cc2Cl)Cn2ccnc2)cc1 [A, 1-(2,4-dichlorophenyl)-2-(4-chlorophenyl)-3-(imidazolyl-1)-propene-1-nitrate]	~1000 mg/kg
Clc1ccc(C=C(Cn2ccnc2)c2ccc(Cl)cc2Cl)c(Cl)c1 [E, 1,2-bis-(2,4-dichlorophenyl)-3-(imidazolyl-1)-propene-1-nitrate]	~2000 mg/kg
Clc1ccc(C=C(Cn2ccnc2)c2ccc(Cl)cc2Cl)cc1 [F, 1-(4-chlorophenyl)-2-(2,4-dichlorophenyl)-3-(imidazolyl-1)-propene-1-nitrate]	~2000 mg/kg
Clc1ccc(C(=Cc2ccccc2)Cn2ccnc2)cc1 [C, 1-phenyl-2-(4-chlorophenyl)-3-(imidazolyl-1)-propene-1-nitrate]	~1000 mg/kg
Clc1ccc(C(=Cc2ccc(Br)cc2)Cn2ccnc2)c(Cl)c1 [G, 1-(4-bromophenyl)-2-(2,4-dichlorophenyl)-3-(imidazolyl-1)-propene-1-nitrate]	~1000 mg/kg
Clc1ccc(C=C(Cn2ccnc2)c2ccc(Cl)cc2)cc1 [B, 1-(4-chlorophenyl)-2-(4-chlorophenyl)-3-(imidazolyl-1)-propene-1-nitrate]	~1000 mg/kg
